Experimental data taken from patent publication US20250000043A1, “NON-TRANSGENIC SUNFLOWER PLANTS HAVING INCREASED TOLERANCE TO HERBICIDES” (BASF Agricultural Solutions Seed US LLC, priority 2021, published 2025).
Where two headings read alike, the source gives them in different places.

Key:
[1] = system: PPO2_F420I Mutant sunflower; experiment: Field PPO cross-tolerance trial, mutant (Example 8); format: in vivo; conditions: for Phytotoxicity (%) PPO2_F420I Mutant 6DAT / Phytotoxicity (%) PPO2_F420I Mutant 11DAT / Phytotoxicity (%) PPO2_F420I Mutant 14DAT: MSO 1% v/v
Protocol: (§1) A field trial was carried out to assess PPO cross-tolerance in non-introgressed, selfed, homozygous PPO2_F4201 mutants, as well as to assess tolerance differences using increasing rates of herbicides listed in Table 5. The field trial was done in Utrera, Spain, in September of 2021.
(§2) Herbicide treatments (Table 5) were applied in the field when plants had the BBCH12-14 growth stage (2-4 leaves). The field trial design was the randomized complete block design, and 1 replication was considered due to limitation in seed availability. Two entries were used in the field trial, the WT line and the PPO2_F4201 mutant. The experimental plot consisted of 1 entry per plot and 1 row per entry.
(§3) Phytotoxicity of mutant and WT entries was recorded over time, at 6, 11 and 14 DAT, where 100% phytotoxicity indicates complete control (dead plants), and 0% phytotoxicity indicates no control or alive plants without any herbicide injury.

[2] = system: Wild Type (WT) sunflower line; experiment: Field PPO cross-tolerance trial, wild type (Example 8); format: in vivo; conditions: for Phytotoxicity (%) Wild Type (WT) 6DAT / Phytotoxicity (%) Wild Type (WT) 11DAT / Phytotoxicity (%) Wild Type (WT) 14DAT: MSO 1% v/v
Protocol: as §1, §2, §3

[3] = system: homozygous PPO2_F4201 sunflower (HA452-M); experiment: Greenhouse PPO cross-tolerance trial, mutant (Example 7); format: in vivo; conditions: for recovery of PPO2_F4201 plants after early phytotoxicity at 4 DAT: 10 DAT; for survival of PPO2_F4201 plants: all rates tested, MSO 1% v/v
Protocol: (§4) In August of 2021, a greenhouse herbicide trial was carried out in Zwijnaarde, Belgium. A homozygous PPO2_F4201 sunflower seed lot (HA452-M), and a wild type (WT) sunflower line (RHA473) were used in the greenhouse trial. Sixteen homozygous PPO2_F4201 mutant plants and six WT plants were sown and treated with each herbicide. […]

[4] = system: wild type (WT) sunflower line (RHA473); experiment: Greenhouse PPO cross-tolerance trial, wild type (Example 7); format: in vivo
Protocol: as §4

[5] = system: conventional sunflowers (Edison, ES Coloris Clearfield, inbred line HA452); experiment: Field trials of sunflower sensitivity to saflufenacil (Example 1); format: in vivo, Helianthus annuus
Protocol: Research was conducted to evaluate the sensitivity of sunflower to the herbicide comprising the active ingredient (AI) saflufenacil (Trade name: Kixor™). The herbicide was applied in 2 field trials at different rates ranging from 0.91 g to 14 g a.i./ha (with 0.5-1% MSO-methylated seed oil-adjuvant) to 2 commercial sunflower varieties [a) a conventional (non-herbicide tolerant) sunflower (“Edison”) which is a linoleic oil-type sunflower, and b) a herbicide tolerant sunflower (“ES Coloris Clearfield which is a linoleic oil-type sunflower] and a public inbred line HA452, from the USDA (United States Department of Agriculture) National Plant Germplasm System (NPGS), deposited under Accession No. PI 642771. The treated plants were at the 2-to-4 leaf-stage (BBCH12-14). Trials were set up in a randomized complete block design with 3 replications and rated for herbicide phytotoxicity (percentage damage) 3, 7, 10 and 14 days after treatment (see also Example 4 for more details). Herbicide phytotoxicity ranges from 0% phytotoxicity (full tolerance) to 100% phytotoxicity (full susceptibility or absence of tolerance).
Full control of all sunflower materials was even observed at the first phytotoxicity evaluation time point, 3 days after treatment (DAT) with saflufenacil (results not shown).
The second field trial (trial 2) compared the adjuvant MSO at two concentrations: 1% v/v, concentration used by the farmer and 0.5%, half the concentration (FIG. 2). With the MSO concentration of 0.5% v/v, which lowers the general herbicidal efficacy of saflufenacil in weeds, control of all sunflower materials was around 80% at the lowest rate of saflufenacil (0.91 g a.i./ha) and 100% at 1.75 g a.i./ha and higher (FIG. 2).

[6] = system: progeny of mutant lead LIH16358 (PPO2_F383I); experiment: Greenhouse re-assessment of saflufenacil tolerance, mutant progeny (Example 3); format: in vivo, Helianthus annuus
From the text: (§5) As it is not uncommon that in forward field mutant screening for herbicide tolerance ‘false’ tolerant plants are selected, the field candidates were reassessed in the greenhouse. Field harvested seeds of the mutant lead LIH16358 were planted in the greenhouse on Nov. 26, 2019, in Limburgerhof, Germany. The greenhouse trial had the objective to verify if the progeny of mutant lead LIH16358 would survive treatment with saflufenacil. Seeds of the susceptible wild type (HA452) line were planted in the same greenhouse trial as the susceptible reference. Saflufenacil was sprayed at 2.5 g a.i./ha on Dec. 10, 2019. The 2.5 g a.i./ha of saflufenacil corresponds to 12.5 g a.i./ha in field conditions. The final phytotoxicity evaluation in the treated plants was done on Dec. 24, 2019.
(§6) The tolerant progeny individuals of mutant lead LIH16358 produced seeds, which were planted in a follow up greenhouse trial on May 19, 2020. The plants were sprayed with 2.0 g a.i./ha of saflufenacil on Jun. 3, 2020.

[7] = system: PPO2_F383I mutant lines; experiment: Advanced field trial with saflufenacil, Utrera 2021 (Example 4); format: in vivo, Helianthus annuus
Protocol: M6 seed of eleven lines all originating from the nine plants carrying the PPO2_F383I mutation but with a different pedigree were assessed in an advanced field trial. The advanced field trial was manually planted in Utrera, Spain, on May 3, 2021. One row per mutant entry per plot was considered, and thirty-two seeds were planted per mutant entry per row per plot. Saflufenacil was applied in four increasing rates (0×: 0 g a.i/ha, 0.5×=12.5 g a.i./ha; 1×=25 g a.i./ha and 2×=50 g a.i./ha) when plants were at the BBCH12-14 growth stage. Saflufenacil application took place on Jul. 26, 2021. The field trial design was a strip-block design with four replications.
Phytotoxicity evaluations were done at 2, 5, 12, 19 and 26 days after treatment (DAT) with saflufenacil. As discussed previously, phytotoxicity of the mutant entries and wild type control were scored in each of the evaluation days after saflufenacil treatment. Eleven mutant lines were tested. The field tested one mutant line per row 32 seeds per row, for each saflufenacil rate treatment and replication, this means every plot was made of a single row, so the plot was the row for each mutant line. The phytotoxicity % score was given for each row in comparison to the untreated row of the same mutant line (control), meaning all 11 mutant lines were assessed for phytotoxicity % in all treatments and replications. Phytotoxicity was visually recorded at each evaluation time after saflufenacil application on a per plot basis based on the rating scale table (below).
To better reflect the tolerance of surviving plants, data were expressed in percent herbicide tolerance efficacy by using the formula below:
where: • 0% means no tolerance • 100% means full tolerance

[8] = target: wild-type PPO2 enzyme (Helianthus annuus, UniProt A0A251TWC2); experiment: In vitro PPO inhibition assay, wild type enzyme (Example 5); format: biochemical, sunflower
Chain of wild-type PPO2 enzyme (A0A251TWC2 entry or part of it): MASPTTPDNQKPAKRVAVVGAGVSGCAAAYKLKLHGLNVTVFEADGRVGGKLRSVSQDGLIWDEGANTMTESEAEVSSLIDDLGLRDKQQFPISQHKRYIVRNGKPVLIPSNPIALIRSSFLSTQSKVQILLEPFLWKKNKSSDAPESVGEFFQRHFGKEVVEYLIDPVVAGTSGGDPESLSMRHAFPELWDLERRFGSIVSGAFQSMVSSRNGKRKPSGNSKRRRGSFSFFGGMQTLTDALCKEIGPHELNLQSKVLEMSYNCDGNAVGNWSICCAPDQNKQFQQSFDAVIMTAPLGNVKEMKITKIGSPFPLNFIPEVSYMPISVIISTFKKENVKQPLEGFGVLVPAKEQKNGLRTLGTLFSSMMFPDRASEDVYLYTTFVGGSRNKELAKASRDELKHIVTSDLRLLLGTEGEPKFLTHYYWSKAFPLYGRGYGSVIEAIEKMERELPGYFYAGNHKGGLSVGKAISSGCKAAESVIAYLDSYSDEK
From the text: (§7) To test whether the PPO2_F383I is the main cause of the observed saflufenacil tolerance, we used an in vitro to compare the inhibition potency (IC50) of different PPO inhibiting herbicides between wild-type and mutant PPO2 enzyme. The in vitro assay assesses the oxidation of protoporphyrinogen IX to protoporphyrin IX, catalyzed by the PPO enzyme. Both the wild type and mutant PPO2 proteins were heterologously expressed in E. coli and purified. Purified protein was mixed with different concentrations of the herbicide ranging from 10^−5M to 10^−11M and protein activity was measured. Protein activity is defined as the fluorescence per minute that the reaction generates. In the reaction, the purified PPO enzyme is mixed with substrate protoporphyrinogen IX and the herbicide. The product of the reaction is excited at 405 nm and produces a fluorescence at 630 nm which we detect. IC50 (in Mol) and tolerance factor were calculated.

[9] = system: PPO2_F383I mutant PPO2 enzyme; experiment: In vitro PPO inhibition assay, mutant enzyme (Example 5); format: biochemical, sunflower; conditions: PPO2_F383I versus wild type IC50
From the text: as §7

[10] = target: PPO2_F383I mutant PPO2 enzyme (Helianthus annuus, UniProt A0A251TWC2, F383I); experiment: as above; format: biochemical, sunflower
Chain of PPO2_F383I mutant PPO2 enzyme (Helianthus annuus, UniProt A0A251TWC2, F383I) (A0A251TWC2 entry or part of it F383I): as the sequence (A0A251TWC2 entry or part of it) above, with F383I counted along it
From the text: as §7

[11] = system: susceptible wild type (HA452) line; experiment: Greenhouse re-assessment of saflufenacil tolerance, wild type reference (Example 3); format: in vivo, Helianthus annuus
From the text: as §5, §6

## C#CCN1C(=O)COc2cc(F)c(N3C(=O)C4=C(CCCC4)C3=O)cc21 [Flumioxazin]
[1]; 45 g a.i./ha
  Phytotoxicity (%) PPO2_F420I Mutant 6DAT: 20%
  Phytotoxicity (%) PPO2_F420I Mutant 11DAT: 20%
  Phytotoxicity (%) PPO2_F420I Mutant 14DAT: 10%
[1]; 55 g a.i./ha
  Phytotoxicity (%) PPO2_F420I Mutant 6DAT: 30%
  Phytotoxicity (%) PPO2_F420I Mutant 11DAT: 25%
  Phytotoxicity (%) PPO2_F420I Mutant 14DAT: 15%
[1]; 65 g a.i./ha
  Phytotoxicity (%) PPO2_F420I Mutant 6DAT: 30%
  Phytotoxicity (%) PPO2_F420I Mutant 11DAT: 30%
  Phytotoxicity (%) PPO2_F420I Mutant 14DAT: 20%
[2]; 45 g a.i./ha
  Phytotoxicity (%) Wild Type (WT) 6DAT: 80%
  Phytotoxicity (%) Wild Type (WT) 11DAT: 75%
  Phytotoxicity (%) Wild Type (WT) 14DAT: 75%
[2]; 55 g a.i./ha
  Phytotoxicity (%) Wild Type (WT) 6DAT: 80%
  Phytotoxicity (%) Wild Type (WT) 11DAT: 70%
  Phytotoxicity (%) Wild Type (WT) 14DAT: 70%
[2]; 65 g a.i./ha
  Phytotoxicity (%) Wild Type (WT) 6DAT: 85%
  Phytotoxicity (%) Wild Type (WT) 11DAT: 80%
  Phytotoxicity (%) Wild Type (WT) 14DAT: 80%
[2]; across flumioxazin rates (45, 55, 65 g a.i./ha)
  WT control level: 75-80%
[3]
  recovery of PPO2_F4201 plants after early phytotoxicity at 4 DAT: consistent survival and recovery
  survival of PPO2_F4201 plants: survived at all rates
[4]; 4 g/ha, 10 DAT
  surviving WT plants: one
[4]; dose as low as 4 g/ha, greenhouse
  phytotoxicity score of WT plants: 90-100%

## CC(C)N(C)S(=O)(=O)NC(=O)c1cc(-n2c(=O)cc(C(F)(F)F)n(C)c2=O)c(F)cc1Cl [Saflufenacil]
[5]; 0.91 g a.i./ha, 1% v/v MSO
  phytotoxicity: 100%
[5]; 1% MSO v/v, all applied rates (0.91 to 14 g a.i./ha), field trial 2
  control of sunflower materials: total control
[5]; 1.75 g a.i./ha and higher, MSO 0.5% v/v, field trial 2
  control of all sunflower materials: 100%
[5]; field trial 1, 3 days after treatment
  control of all sunflower materials: Full control
[5]; field trial 1, lowest saflufenacil rate, after 14 days
  control of all three sunflower materials: completed controlled
[6]; 2.0 g a.i./ha, second generation progenies, 14 DAT
  phytotoxicity of individuals: ≥ 25%
[6]; 2.5 g a.i./ha, first generation progeny
  survival after treatment: survived saflufenacil treatment
[1]; 3.125 g a.i./ha
  Phytotoxicity (%) PPO2_F420I Mutant 6DAT: 40%
  Phytotoxicity (%) PPO2_F420I Mutant 11DAT: 35%
  Phytotoxicity (%) PPO2_F420I Mutant 14DAT: 35%
[1]; 6.25 g a.i./ha
  Phytotoxicity (%) PPO2_F420I Mutant 6DAT: 45%
  Phytotoxicity (%) PPO2_F420I Mutant 11DAT: 40%
  Phytotoxicity (%) PPO2_F420I Mutant 14DAT: 40%
[1]; all rates of saflufenacil
  survival of the PPO2_F4201 mutant: survives
[1]; at 11 and 14 DAT
  maximum phytotoxicity in the PPO2_F4201 mutants: 40%
[7]; 50 g a.i./ha in the field
  survival and seed production: survive and produce seeds
[7]; across entries and saflufenacil rates
  impact on days to 50% flowering versus untreated: ≤ 5 days
[7]; all eleven mutant lines, all rates (12.5, 25, 50 g a.i./ha)
  tolerance efficacy (%): high tolerance efficacy
[7]; all rates including 2x (50 g a.i./ha)
  plant recovery: start to significantly recover at 19 DAT
[7]; eleven mutant entries, field, 12.5, 25 and 50 g a.i./ha
  phytotoxicity at peak, compared to untreated controls: higher than 15%
[7]; when flowering was completed, 73 DAT
  plant height, treated versus untreated: untreated plants showed a greater plant height compared to treated plants
[2]; 3.125 g a.i./ha
  Phytotoxicity (%) Wild Type (WT) 6DAT: 100%
  Phytotoxicity (%) Wild Type (WT) 11DAT: 100%
  Phytotoxicity (%) Wild Type (WT) 14DAT: 100%
[2]; 6.25 g a.i./ha
  Phytotoxicity (%) Wild Type (WT) 6DAT: 100%
  Phytotoxicity (%) Wild Type (WT) 11DAT: 100%
  Phytotoxicity (%) Wild Type (WT) 14DAT: 100%
[2]; saflufenacil 3.125 and 6.25 g a.i./ha
  phytotoxicity in the WT background: 100%
[3]
  recovery of PPO2_F4201 plants after early phytotoxicity at 4 DAT: consistent survival and recovery
  survival of PPO2_F4201 plants: survived at all rates
[8]
  IC50: 1.46 nM
[9]
  Tolerance factor: 2897
[10]; IC50 for PPO2_F383I
  IC50: 4360 nM
[10]; PPO2_F383I IC50, purified enzyme expressed in E. coli, herbicide 10^-5 M to 10^-11 M
  IC50: 4230 nM
[11]; 2.0 g a.i./ha, 14 DAT
  phytotoxicity: 100%
[11]; 2.5 g a.i./ha
  control of wild type reference plants: completely controlled and dead
[4]; dose as low as 1.25 g/ha, greenhouse, MSO 1% v/v
  kill of WT plants: all killed

## COC(=O)CCNC(=O)C(C)Sc1cc(-n2c(=O)cc(C(F)(F)F)n(C)c2=O)c(F)cc1Cl (stereo not drawn) [Tiafenacil]
[8]; purified enzyme expressed in E. coli, herbicide 10^-5 M to 10^-11 M, read-out: Wild type IC50
  IC50: 0.93 nM
[9]
  Tolerance factor: 1398
[10]; purified enzyme expressed in E. coli, herbicide 10^-5 M to 10^-11 M, read-out: PPO2_F383I IC50
  IC50: 1300 nM

## C#CCN1C(=O)C(F)(F)Oc2cc(F)c(-n3c(=O)n(C)c(=S)n(C)c3=O)cc21 [Trifludimoxazin (Tirexor ™), 1,5-dimethyl-6-thioxo-3-(2,2,7-trifluoro-3-oxo-4-(prop-2-ynyl)-3,4-dihydro-2H-benzo[b][1,4]oxazin-6-yl)-1,3,5-triazinane-2,4-dione]
[8]
  IC50: 1.4 nM
[9]
  Tolerance factor: 3257
[10]
  IC50: 4560 nM
